Oligonucleotides are written 5' to 3', each unit as a sugar letter and its base; * is a phosphorothioate linkage, no mark a phosphodiester; rarer units and linkages stand in square brackets, end groups in braces. Plain capitals give the bases only. e = 2'-O-(2-methoxyethyl) (MOE); [5mC] = 5-methylcytosine; d = 2'-deoxy (DNA)
What was measured:
murine TTC39B mRNA [1] = experiment: Dose-dependent antisense inhibition of murine TTC39B in mouse primary hepatocytes (Example 2); type: cell-based; details: cytofectin, ~16 h
Method: Cells were plated at a density of 10,000 cells per well and transfected using cytofectin reagent with 25 nM, 50 nM, 100 nM, and 200 nM concentrations of antisense oligonucleotide, as specified in Table 3. After a treatment period of approximately 16 hours, RNA was isolated from the cells and TTC39B mRNA levels were measured by quantitative real-time PCR. Murine primer probe set mTtc39b_LTS00287 (forward sequence: […], incorporated herein as SEQ ID NO: 94; reverse sequence: […], incorporated herein as SEQ ID NO: 95; probe sequence: […], incorporated herein as SEQ ID NO: 96) was used to measure mRNA levels. TTC39B mRNA levels were adjusted according to total RNA content, as measured by RIBOGREEN®. Results are presented as percent inhibition of TTC39B, relative to untreated control cells.

murine TTC39B mRNA [2] = experiment: Antisense inhibition of murine TTC39B in mouse primary hepatocytes, single dose; type: cell-based; details: 100 nM, cytofectin, ~24 h, vs untreated control
Method: Antisense oligonucleotides targeted to a TTC39B nucleic acid were tested for their effects on TTC39B mRNA in vitro. Cultured mouse primary hepatocytes at a density of 10,000 cells per well were transfected using cytofectin reagent with 100 nM antisense oligonucleotide. After a treatment period of approximately 24 hours, RNA was isolated from the cells and TTC39B mRNA levels were measured by quantitative real-time PCR. TTC39B mRNA levels were adjusted according to total RNA content, as measured by RIBOGREEN®. Results are presented as percent inhibition of TTC39B, relative to untreated control cells.
The chimeric antisense oligonucleotides in Tables 1 and 2 were designed as 5-10-5 MOE gapmers. The gapmers are 20 nucleotides in length, wherein the central gap segment is comprised of 10 2′-deoxynucleotides and is flanked on both sides (in the 5′ and 3′ directions) by wings comprising 5 nucleotides each. Each nucleotide in the 5′ wing segment and each nucleotide in the 3′ wing segment has a 2′-MOE modification. The internucleoside linkages throughout each gapmer are phosphorothioate (P═S) linkages. All cytosine residues throughout each gapmer are 5-methylcytosines. “Target start site” indicates the 5′-most nucleotide to which the gapmer is targeted. “Target stop site” indicates the 3′-most nucleotide to which the gapmer is targeted. Each gapmer listed in Table 1 is targeted to SEQ ID NO: 6 (GENBANK Accession No. NM_027238.2) and each gapmer listed in Table 2 is targeted to SEQ ID NO: 10 (the complement of GENBANK Accession No. NT—039260.7 truncated at nucleotides 22491001 to 22601000), SEQ ID NO: 11 (GENBANK Accession No. BY244623.1), SEQ ID NO: 12 (GENBANK Accession No. BY260936), SEQ ID NO: 13 (GENBANK Accession No. BM935568.1) or SEQ ID NO: 14 (GENBANK Accession No. BY728780.1).

[3] = gapmers targeted to SEQ ID NO: 6
[4] = gapmers targeted to SEQ ID NO: 10-14

| Sequence | % inhibition of murine TTC39B mRNA (murine TTC39B mRNA [2]; [3]) [%] | also measured |
| --- | --- | --- |
| GTTGCCTTGGACCATTTACT (antisense eG*eT*eT*eG*e[5mC]*d[5mC]*dT*dT*dG*dG*dA*d[5mC]*d[5mC]*dA*dT*eT*eT*eA*e[5mC]*eT) [ISIS 447122] | 67 | percent inhibition of TTC39B mRNA (murine TTC39B mRNA [1]; 25 nM): 35%; percent inhibition of TTC39B mRNA (murine TTC39B mRNA [1]; 50 nM): 61%; percent inhibition of TTC39B mRNA (murine TTC39B mRNA [1]; 100 nM): 78%; percent inhibition of TTC39B mRNA (murine TTC39B mRNA [1]; 200 nM): 88% |
| GGTGGAGTCTGGCCCTCAGC (antisense eG*eG*eT*eG*eG*dA*dG*dT*d[5mC]*dT*dG*dG*d[5mC]*d[5mC]*d[5mC]*eT*e[5mC]*eA*eG*e[5mC]) [ISIS 447142] | 66 | percent inhibition of TTC39B mRNA (murine TTC39B mRNA [1]; 25 nM): 36%; percent inhibition of TTC39B mRNA (murine TTC39B mRNA [1]; 50 nM): 64%; percent inhibition of TTC39B mRNA (murine TTC39B mRNA [1]; 100 nM): 85%; percent inhibition of TTC39B mRNA (murine TTC39B mRNA [1]; 200 nM): 91% |
| TACAGACCATGAGCTTTGAT (antisense eT*eA*e[5mC]*eA*eG*dA*d[5mC]*d[5mC]*dA*dT*dG*dA*dG*d[5mC]*dT*eT*eT*eG*eA*eT) [ISIS 447145] | 61 |  |
| GTTTCTTGAGCCTATAAGTC (eG*eT*eT*eT*e[5mC]*dT*dT*dG*dA*dG*d[5mC]*d[5mC]*dT*dA*dT*eA*eA*eG*eT*e[5mC]; antisense) [ISIS 447172] |  | % inhibition of murine TTC39B mRNA (murine TTC39B mRNA [2]; [4]): 54% |
| GACTTTGAGATGGCACACAA (antisense eG*eA*e[5mC]*eT*eT*dT*dG*dA*dG*dA*dT*dG*dG*d[5mC]*dA*e[5mC]*eA*e[5mC]*eA*eA) [ISIS 447152] | 60 |  |
| GACAGCCTGCAACACCACAA (antisense eG*eA*e[5mC]*eA*eG*d[5mC]*d[5mC]*dT*dG*d[5mC]*dA*dA*d[5mC]*dA*d[5mC]*e[5mC]*eA*e[5mC]*eA*eA) [ISIS 447105] | 52 |  |
| GGTGCCCGGACCAGCCCGCT (antisense eG*eG*eT*eG*e[5mC]*d[5mC]*d[5mC]*dG*dG*dA*d[5mC]*d[5mC]*dA*dG*d[5mC]*e[5mC]*e[5mC]*eG*e[5mC]*eT) [ISIS 447158] |  | % inhibition of murine TTC39B mRNA (murine TTC39B mRNA [2]; [4]): 39% |
| TCTTCACTCAGTTGTTCCAG (antisense eT*e[5mC]*eT*eT*e[5mC]*dA*d[5mC]*dT*d[5mC]*dA*dG*dT*dT*dG*dT*eT*e[5mC]*e[5mC]*eA*eG) [ISIS 447108] | 49 |  |
| AAAGAGGAGTCCTTCCTTAA (antisense eA*eA*eA*eG*eA*dG*dG*dA*dG*dT*d[5mC]*d[5mC]*dT*dT*d[5mC]*e[5mC]*eT*eT*eA*eA) [ISIS 447160] |  | % inhibition of murine TTC39B mRNA (murine TTC39B mRNA [2]; [4]): 63% |
| GCCAGCCAGGGCAGGCACTC (antisense eG*e[5mC]*e[5mC]*eA*eG*d[5mC]*d[5mC]*dA*dG*dG*dG*d[5mC]*dA*dG*dG*e[5mC]*eA*e[5mC]*eT*e[5mC]) [ISIS 447163] |  | % inhibition of murine TTC39B mRNA (murine TTC39B mRNA [2]; [4]): 50% |
| TATGGAGAAGCAGATGGCCT (eT*eA*eT*eG*eG*dA*dG*dA*dA*dG*d[5mC]*dA*dG*dA*dT*eG*eG*e[5mC]*e[5mC]*eT; antisense) [ISIS 447175] |  | % inhibition of murine TTC39B mRNA (murine TTC39B mRNA [2]; [4]): 56% |
| TCCGGTGCGCACCCAGTACC (antisense eT*e[5mC]*e[5mC]*eG*eG*dT*dG*d[5mC]*dG*d[5mC]*dA*d[5mC]*d[5mC]*d[5mC]*dA*eG*eT*eA*e[5mC]*e[5mC]) [ISIS 447155] |  | % inhibition of murine TTC39B mRNA (murine TTC39B mRNA [2]; [4]): 23% |
| TCATATTTTCATCCTGCACA (antisense eT*e[5mC]*eA*eT*eA*dT*dT*dT*dT*d[5mC]*dA*dT*d[5mC]*d[5mC]*dT*eG*e[5mC]*eA*e[5mC]*eA) [ISIS 447109] | 41 |  |
| CCAGACAGACACTCAGACCA (antisense e[5mC]*e[5mC]*eA*eG*eA*d[5mC]*dA*dG*dA*d[5mC]*dA*d[5mC]*dT*d[5mC]*dA*eG*eA*e[5mC]*e[5mC]*eA) [ISIS 447149] | 48 |  |
| TAGTAATACGCCTGCATCCA (antisense eT*eA*eG*eT*eA*dA*dT*dA*d[5mC]*dG*d[5mC]*d[5mC]*dT*dG*d[5mC]*eA*eT*e[5mC]*e[5mC]*eA) [ISIS 447121] | 53 |  |
| GCAGCTTTCAAGAACACATA (antisense eG*e[5mC]*eA*eG*e[5mC]*dT*dT*dT*d[5mC]*dA*dA*dG*dA*dA*d[5mC]*eA*e[5mC]*eA*eT*eA) [ISIS 447123] | 47 |  |

| Sequence | % inhibition of murine TTC39B mRNA (murine TTC39B mRNA [2]; [3]) [%] | also measured |
| --- | --- | --- |
| TTCTTACAAACATCCTAAGA (antisense eT*eT*e[5mC]*eT*eT*dA*d[5mC]*dA*dA*dA*d[5mC]*dA*dT*d[5mC]*d[5mC]*eT*eA*eA*eG*eA) [ISIS 447148] | 54 |  |
| CGTGTCATTTATTAAATAAC (antisense e[5mC]*eG*eT*eG*eT*d[5mC]*dA*dT*dT*dT*dA*dT*dT*dA*dA*eA*eT*eA*eA*e[5mC]) [ISIS 447154] | 22 |  |
| AAAATATCTCTGAAGTTTAA (antisense eA*eA*eA*eA*eT*dA*dT*d[5mC]*dT*d[5mC]*dT*dG*dA*dA*dG*eT*eT*eT*eA*eA) [ISIS 447136] | 24 |  |
| TGTCCGATGGAGATTGTTAA (antisense eT*eG*eT*e[5mC]*e[5mC]*dG*dA*dT*dG*dG*dA*dG*dA*dT*dT*eG*eT*eT*eA*eA) [ISIS 447164] |  | % inhibition of murine TTC39B mRNA (murine TTC39B mRNA [2]; [4]): 0% |
| TCCACCTTGGCTGATGAACC (antisense eT*e[5mC]*e[5mC]*eA*e[5mC]*d[5mC]*dT*dT*dG*dG*d[5mC]*dT*dG*dA*dT*eG*eA*eA*e[5mC]*e[5mC]) [ISIS 447104] | 48 |  |
| ACAGTATCTTGAACATGACA (antisense eA*e[5mC]*eA*eG*eT*dA*dT*d[5mC]*dT*dT*dG*dA*dA*d[5mC]*dA*eT*eG*eA*e[5mC]*eA) [ISIS 447147] | 46 |  |
| TCCAGAGATGAAGAGCTGCT (antisense eT*e[5mC]*e[5mC]*eA*eG*dA*dG*dA*dT*dG*dA*dA*dG*dA*dG*e[5mC]*eT*eG*e[5mC]*eT) [ISIS 447131] | 60 |  |
| CAGTAAAGTCTTGATTCTGC (antisense e[5mC]*eA*eG*eT*eA*dA*dA*dG*dT*d[5mC]*dT*dT*dG*dA*dT*eT*e[5mC]*eT*eG*e[5mC]) [ISIS 447126] | 58 |  |
| TTCCAGCTCGGCTGCGCCAC (antisense eT*eT*e[5mC]*e[5mC]*eA*dG*d[5mC]*dT*d[5mC]*dG*dG*d[5mC]*dT*dG*d[5mC]*eG*e[5mC]*e[5mC]*eA*e[5mC]) [ISIS 447157] |  | % inhibition of murine TTC39B mRNA (murine TTC39B mRNA [2]; [4]): 21% |
| CATCATTTCCAGGGCTGGCA (antisense e[5mC]*eA*eT*e[5mC]*eA*dT*dT*dT*d[5mC]*d[5mC]*dA*dG*dG*dG*d[5mC]*eT*eG*eG*e[5mC]*eA) [ISIS 447125] | 54 |  |
| GAGTACATTCAAATACAGGA (antisense eG*eA*eG*eT*eA*d[5mC]*dA*dT*dT*d[5mC]*dA*dA*dA*dT*dA*e[5mC]*eA*eG*eG*eA) [ISIS 447139] | 58 |  |
| TCTGGAAGCATGCTCAAAAT (antisense eT*e[5mC]*eT*eG*eG*dA*dA*dG*d[5mC]*dA*dT*dG*d[5mC]*dT*d[5mC]*eA*eA*eA*eA*eT) [ISIS 447124] | 60 |  |
| AGGACCTTGATGGCCTTGTC (antisense eA*eG*eG*eA*e[5mC]*d[5mC]*dT*dT*dG*dA*dT*dG*dG*d[5mC]*d[5mC]*eT*eT*eG*eT*e[5mC]) [ISIS 447130] | 44 |  |
| AGATACAAGTCCCTTCTGCC (antisense eA*eG*eA*eT*eA*d[5mC]*dA*dA*dG*dT*d[5mC]*d[5mC]*d[5mC]*dT*dT*e[5mC]*eT*eG*e[5mC]*e[5mC]) [ISIS 447137] | 50 |  |
| AGCATCAAATTAAAGGCCCC (antisense eA*eG*e[5mC]*eA*eT*d[5mC]*dA*dA*dA*dT*dT*dA*dA*dA*dG*eG*e[5mC]*e[5mC]*e[5mC]*e[5mC]) [ISIS 447113] | 59 |  |
| CCTGATAAATCACAAATGCT (antisense e[5mC]*e[5mC]*eT*eG*eA*dT*dA*dA*dA*dT*d[5mC]*dA*d[5mC]*dA*dA*eA*eT*eG*e[5mC]*eT) [ISIS 447150] | 46 |  |
